Measurements reported in USRE50528E1, “Compounds and compositions for modulating EGFR mutant kinase activities” (Yuhan Corporation, priority 2014, dated 2025).

Experiments:
EGFR mutant T790M = target: T1, EGFR mutant T790M (Homo sapiens, UniProt P00533, T790M); test: Kinase inhibition assay, EGFR mutant T790M; conditions: biochemical potency;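 further: truncated human EGFR mutant enzyme preincubated two hours with compound, then ATP plus ULight-PolyGT peptide for one hour, Europium-labeled antibody LANCE detection, IC50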
T1 construct: truncated human JAK3, EGFR mutants such as del E746-A750; purchased Carna Biosciences

[1] = target: T2, EGFR mutant Del19 (E746-A750) (Homo sapiens, UniProt P00533, DEL746-750); test: Kinase inhibition assay, EGFR del E746-A750; format: biochemical; conditions: read-out: EGFR mutants Del19 (E746-A750);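 further: truncated human EGFR mutant kinase, two-hour preincubation with compound, then one-hour reaction with ATP and ULight-PolyGT peptide, LANCE Europium-antibody phosphorylation readout, IC50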
T2 construct: truncated human JAK3, EGFR mutants such as del E746-A750; purchased Carna Biosciences

EGFR mutant L858R = target: T3, EGFR mutant L858R (Homo sapiens, UniProt P00533, L858R); test: Kinase inhibition assay, EGFR L858R; format: biochemical; conditions: read-out: EGFR mutants L858R;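 further: truncated human EGFR L858R kinase with compound preincubation, ULight-PolyGT peptide phosphorylation read by Europium-antibody Lance detection, IC50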
T3 construct: truncated human JAK3, EGFR mutants such as del E746-A750; purchased Carna Biosciences

EGFR mutant L858R/T790M = target: T4, EGFR mutant L858R/T790M (Homo sapiens, UniProt P00533, L858R/T790M); test: Kinase inhibition assay, EGFR L858R/T790M; format: biochemical; conditions: read-out: EGFR mutants L858R/T790M;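 further: truncated human enzyme preincubated two hours with compound, then one hour with one millimolar ATP and ULight-PolyGT peptide, Europium-labeled antibody detection, IC50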
T4 construct: truncated human JAK3, EGFR mutants such as del E746-A750; purchased Carna Biosciences

EGFR mutant Del19/T790M = target: T5, EGFR mutant Del19/T790M (Homo sapiens, UniProt P00533, DEL746-750/T790M); test: Kinase inhibition assay, EGFR del E746-A750/T790M; format: biochemical; conditions: read-out: EGFR mutants Del19/T790M
T5 construct: truncated human JAK3, EGFR mutants such as del E746-A750; purchased Carna Biosciences

SYK = target: T6, SYK (Homo sapiens, UniProt P43405); test: Kinase inhibition assay, SYK; format: biochemical; conditions: biochemical potency;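 further: purified full-length human SYK pre-incubated 30 min with compound, then ULight-TK peptide phosphorylation for 1 h, detected with Europium-labeled antibody in Lance buffer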
T6 construct: Purified human, full-length SYK, KDR; purchased Carna Biosciences

T4 sequence (P00533 669-1210 T790M/L858R limits assumed): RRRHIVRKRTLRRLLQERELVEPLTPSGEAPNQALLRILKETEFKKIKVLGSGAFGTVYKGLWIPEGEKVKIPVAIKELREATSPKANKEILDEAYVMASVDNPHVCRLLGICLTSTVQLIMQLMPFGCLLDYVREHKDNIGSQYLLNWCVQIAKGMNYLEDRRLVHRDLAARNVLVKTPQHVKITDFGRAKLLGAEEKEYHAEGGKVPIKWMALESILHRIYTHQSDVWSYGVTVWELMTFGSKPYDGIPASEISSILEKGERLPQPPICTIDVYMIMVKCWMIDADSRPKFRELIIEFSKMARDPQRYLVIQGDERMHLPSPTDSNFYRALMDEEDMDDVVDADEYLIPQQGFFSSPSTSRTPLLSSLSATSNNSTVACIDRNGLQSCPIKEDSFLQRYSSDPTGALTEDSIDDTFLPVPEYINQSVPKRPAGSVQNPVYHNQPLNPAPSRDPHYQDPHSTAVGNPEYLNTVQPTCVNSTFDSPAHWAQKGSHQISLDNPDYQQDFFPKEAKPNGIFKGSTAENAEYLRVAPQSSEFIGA
T5 sequence (P00533 with tags, fused parts or gaps DEL746-750/T790M limits assumed): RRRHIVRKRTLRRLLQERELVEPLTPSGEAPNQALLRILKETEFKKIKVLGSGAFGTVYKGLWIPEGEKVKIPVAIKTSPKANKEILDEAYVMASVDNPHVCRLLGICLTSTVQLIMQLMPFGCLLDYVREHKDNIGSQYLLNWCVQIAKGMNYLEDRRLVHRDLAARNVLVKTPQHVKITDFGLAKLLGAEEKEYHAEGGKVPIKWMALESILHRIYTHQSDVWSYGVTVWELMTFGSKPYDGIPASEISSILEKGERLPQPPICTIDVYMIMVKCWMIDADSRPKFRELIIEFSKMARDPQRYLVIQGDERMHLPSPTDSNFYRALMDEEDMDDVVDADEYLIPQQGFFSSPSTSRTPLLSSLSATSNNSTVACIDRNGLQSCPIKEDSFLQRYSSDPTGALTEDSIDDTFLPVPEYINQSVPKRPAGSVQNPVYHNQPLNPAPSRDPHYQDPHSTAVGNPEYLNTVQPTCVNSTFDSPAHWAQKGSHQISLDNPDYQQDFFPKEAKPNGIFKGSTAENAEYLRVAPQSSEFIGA
T2 sequence (P00533 with tags, fused parts or gaps DEL746-750 limits assumed): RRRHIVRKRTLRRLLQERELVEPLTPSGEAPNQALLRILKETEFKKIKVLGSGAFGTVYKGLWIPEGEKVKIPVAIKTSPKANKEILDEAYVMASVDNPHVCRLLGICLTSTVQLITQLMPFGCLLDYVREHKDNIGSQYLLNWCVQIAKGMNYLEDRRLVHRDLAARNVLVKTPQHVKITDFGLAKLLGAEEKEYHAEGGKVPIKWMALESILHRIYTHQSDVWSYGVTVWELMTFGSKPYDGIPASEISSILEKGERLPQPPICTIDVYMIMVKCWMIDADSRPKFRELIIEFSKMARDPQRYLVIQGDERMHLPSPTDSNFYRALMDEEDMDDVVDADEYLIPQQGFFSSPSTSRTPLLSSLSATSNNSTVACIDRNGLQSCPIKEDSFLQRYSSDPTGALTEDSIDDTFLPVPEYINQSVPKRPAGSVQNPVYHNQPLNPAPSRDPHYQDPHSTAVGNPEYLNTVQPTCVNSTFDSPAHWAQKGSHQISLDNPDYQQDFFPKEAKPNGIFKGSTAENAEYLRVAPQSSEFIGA
T1 sequence (P00533 669-1210 T790M limits assumed): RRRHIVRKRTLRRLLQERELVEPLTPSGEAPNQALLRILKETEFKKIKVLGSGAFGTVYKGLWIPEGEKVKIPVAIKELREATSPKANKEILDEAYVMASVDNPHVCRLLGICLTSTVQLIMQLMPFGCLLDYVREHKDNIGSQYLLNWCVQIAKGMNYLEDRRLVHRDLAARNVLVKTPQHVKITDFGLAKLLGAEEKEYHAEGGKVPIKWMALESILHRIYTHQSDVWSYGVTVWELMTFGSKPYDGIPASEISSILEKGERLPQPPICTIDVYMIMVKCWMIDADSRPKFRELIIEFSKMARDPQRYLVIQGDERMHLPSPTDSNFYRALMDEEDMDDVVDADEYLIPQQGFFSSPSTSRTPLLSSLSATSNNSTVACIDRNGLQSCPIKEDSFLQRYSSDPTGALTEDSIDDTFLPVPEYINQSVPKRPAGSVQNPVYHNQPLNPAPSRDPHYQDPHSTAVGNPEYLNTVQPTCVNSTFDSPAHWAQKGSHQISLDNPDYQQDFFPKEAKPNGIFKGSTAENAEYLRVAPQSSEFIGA
T3 sequence (P00533 669-1210 L858R limits assumed): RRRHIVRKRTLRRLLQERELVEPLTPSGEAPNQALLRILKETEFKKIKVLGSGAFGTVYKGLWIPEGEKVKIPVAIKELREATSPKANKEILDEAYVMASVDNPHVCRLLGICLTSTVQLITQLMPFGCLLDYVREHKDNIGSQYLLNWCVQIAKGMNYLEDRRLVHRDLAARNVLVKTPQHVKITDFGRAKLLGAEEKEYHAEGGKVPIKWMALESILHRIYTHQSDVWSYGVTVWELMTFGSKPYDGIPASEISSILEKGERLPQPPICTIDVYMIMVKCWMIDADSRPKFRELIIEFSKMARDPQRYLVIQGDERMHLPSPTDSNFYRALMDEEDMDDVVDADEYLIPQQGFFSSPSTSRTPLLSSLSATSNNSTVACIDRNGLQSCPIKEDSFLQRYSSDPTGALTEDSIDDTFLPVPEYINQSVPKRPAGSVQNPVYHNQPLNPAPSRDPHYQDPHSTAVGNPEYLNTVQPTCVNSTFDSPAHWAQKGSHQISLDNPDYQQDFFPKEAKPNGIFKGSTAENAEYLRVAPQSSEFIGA

Row | Structure (SMILES) | IC50 (EGFR mutant T790M) [nM] | IC50 [1] [nM] | IC50 (EGFR mutant L858R) [nM] | IC50 (EGFR mutant L858R/T790M) [nM] | IC50 (EGFR mutant Del19/T790M) [nM] | IC50 (SYK) [nM]
1 | C=CC(=O)Nc1cc(Nc2nccc(-n3cc(CN(C)C)c(-c4cccs4)n3)n2)c(OC)cc1N1CCOCC1 [Compound 88, N-(5-(4-(4-((dimethylamino)methyl)-3-(thiophen-2-yl)-1H-pyrazol-1-yl)pyrimidin-2-ylamino)-4-methoxy-2-morpholinophenyl)acrylamide] | < 20 | < 20 | < 20 | < 20 | < 20 | 201 to 1000
2 | C=CC(=O)Nc1cc(Nc2nccc(-n3cc(CN(C)C)c(-c4ccccc4)n3)n2)c(OC)cc1N(C)CCOC [Compound 94] | < 20 | < 20 | < 20 | < 20 | < 20 | > 1000
3 | C=CC(=O)Nc1cc(Nc2nccc(-n3cc(CN4CCC4)c(-c4ccccc4)n3)n2)c(OC)cc1N(C)CCOC [Compound 95, N-(5-(4-(4-(azetidin-1-ylmethyl)-3-phenyl-1H-pyrazol-1-yl)pyrimidin-2-ylamino)-4-methoxy-2-((2-methoxyethyl)(methyl)amino)phenyl)acrylamide] | < 20 | < 20 | < 20 | < 20 | < 20 | > 1000
4 | C=CC(=O)Nc1cc(Nc2nccc(-n3cc(CN(C)C)c(-c4ccccc4)n3)n2)c(OC)cc1N(C)C1COC1 [Compound 96, N-(5-(4-(4-((dimethylamino)methyl)-3-phenyl-1H-pyrazol-1-yl)pyrimidin-2-ylamino)-4-methoxy-2-(methyl(oxetan-3-yl)amino)phenyl)acrylamide] | 20 to 200 | < 20 | < 20 | < 20 | < 20 | > 1000
5 | C=CC(=O)Nc1cc(Nc2nccc(-n3cc(CN4CCC4)c(-c4ccccc4)n3)n2)c(OC)cc1N(C)C1COC1 [Compound 97, N-(5-(4-(4-(azetidin-1-ylmethyl)-3-phenyl-1H-pyrazol-1-yl)pyrimidin-2-ylamino)-4-methoxy-2-(methyl(oxetan-3-yl)amino)phenyl)acrylamide] | 20 to 200 | 20 to 200 | < 20 | < 20 | < 20 | > 1000
6 | C=CC(=O)Nc1cc(Nc2nccc(-n3cc(CN4CCC4)c(C4CC4)n3)n2)c(OC)cc1N(C)CCOC [Compound 107, N-(5-(4-(4-(azetidin-1-ylmethyl)-3-cyclopropyl-1H-pyrazol-1-yl)pyrimidin-2-ylamino)-4-methoxy-2-((2-methoxyethyl)(methyl)amino)phenyl)acrylamide] | < 20 | < 20 | < 20 | < 20 | < 20 | 20 to 200
7 | C=CC(=O)Nc1cc(Nc2nccc(-n3cc(CN(C)C)c(C4CC4)n3)n2)c(OC)cc1N(C)C1COC1 [Compound 108, N-(5-(4-(3-cyclopropyl-4-((dimethylamino)methyl)-1H-pyrazol-1-yl)pyrimidin-2-ylamino)-4-methoxy-2-(methyl(oxetan-3-yl)amino)phenyl)acrylamide] | < 20 | < 20 | < 20 | < 20 | < 20 | 20 to 200
8 | C=CC(=O)Nc1cc(Nc2nccc(-n3cc(CN4CCC4)c(C4CC4)n3)n2)c(OC)cc1N(C)C1COC1 [Compound 109, N-(5-(4-(4-(azetidin-1-ylmethyl)-3-cyclopropyl-1H-pyrazol-1-yl)pyrimidin-2-ylamino)-4-methoxy-2-(methyl(oxetan-3-yl)amino)phenyl)acrylamide] | < 20 | < 20 | < 20 | < 20 | < 20 | > 1000
9 | C=CC(=O)Nc1cc(Nc2nccc(-n3cc(CN(C)C)c(C(C)C)n3)n2)c(OC)cc1N(C)C1COC1 [Compound 114, N-(5-(4-(4-((dimethylamino)methyl)-3-isopropyl-1H-pyrazol-1-yl)pyrimidin-2-ylamino)-4-methoxy-2-(methyl(oxetan-3-yl)amino)phenyl)acrylamide] | < 20 | < 20 | < 20 | < 20 | < 20 | 201 to 1000
10 | C=CC(=O)Nc1cc(Nc2nccc(-n3cc(CN4CCC4)c(C(C)C)n3)n2)c(OC)cc1N(C)C1COC1 [Compound 115] | < 20 | < 20 | < 20 | < 20 | < 20 | > 1000
11 | C=CC(=O)Nc1cc(Nc2nccc(-n3cc(CN4CCC4)c(C(C)C)n3)n2)c(OC)cc1N1CCOCC1 [Compound 119, N-(5-(4-(4-(azetidin-1-ylmethyl)-3-isopropyl-1H-pyrazol-1-yl)pyrimidin-2-ylamino)-4-methoxy-2-morpholinophenyl)acrylamide] | < 20 | < 20 | < 20 | < 20 | < 20 | 201 to 1000
12 | C=CC(=O)Nc1cc(Nc2ncc(C)c(-n3cc(CN(C)C)c(-c4ccccc4)n3)n2)c(OC)cc1N1CCOCC1 [Compound 120, N-(5-(4-(4-((dimethylamino)methyl)-3-phenyl-1H-pyrazol-1-yl)-5-methylpyrimidin-2-ylamino)-4-methoxy-2-morpholinophenyl)acrylamide] | < 20 | < 20 | < 20 | < 20 | < 20 | 20 to 200
13 | C=CC(=O)Nc1cc(Nc2ncc(F)c(-n3cc(CN(C)C)c(-c4ccoc4)c3)n2)c(OC)cc1N1CCOCC1 [Compound 131, N-(5-(4-(3-((dimethylamino)methyl)-4-(furan-3-yl)-1H-pyrrol-1-yl)-5-fluoropyrimidin-2-ylamino)-4-methoxy-2-morpholinophenyl)acrylamide] | < 20 | < 20 | < 20 | < 20 | < 20 | 201 to 1000
14 | C=CC(=O)Nc1cc(Nc2nccc(-n3cc(CN4CCC4)c(-c4ccccc4)n3)n2)c(OC)cc1N1CCN(C(C)=O)CC1 [Compound 134, N-(2-(4-acetylpiperazin-1-yl)-5-(4-(4-(azetidin-1-ylmethyl)-3-phenyl-1H-pyrazol-1-yl)pyrimidin-2-ylamino)-4-methoxyphenyl)acrylamide] | < 20 | < 20 | < 20 | < 20 | < 20 | 201 to 1000

Now from value to compound:

Row | IC50 (EGFR mutant T790M) [nM] | IC50 [1] [nM] | IC50 (EGFR mutant L858R) [nM] | IC50 (EGFR mutant L858R/T790M) [nM] | IC50 (EGFR mutant Del19/T790M) [nM] | IC50 (SYK) [nM] | Structure (SMILES)
15 | < 20 | < 20 | < 20 | < 20 | < 20 | > 1000 | C=CC(=O)Nc1cc(Nc2nccc(-n3cc(CN4CCC4)c(-c4ccccc4)n3)n2)c(OC)cc1N1CCC1 [Compound 87, N-(2-(azetidin-1-yl)-5-(4-(4-(azetidin-1-ylmethyl)-3-phenyl-1H-pyrazol-1-yl)pyrimidin-2-ylamino)-4-methoxyphenyl)acrylamide]
16 | < 20 | < 20 | < 20 | < 20 | < 20 | 201 to 1000 | C=CC(=O)Nc1cc(Nc2nccc(-n3cc(CN(C)C)c(-c4ccoc4)n3)n2)c(OC)cc1N1CCOCC1 [Compound 127, N-(5-(4-(4-((dimethylamino)methyl)-3-(furan-3-yl)-1H-pyrazol-1-yl)pyrimidin-2-ylamino)-4-methoxy-2-morpholinophenyl)acrylamide]
17 | < 20 | < 20 | < 20 | < 20 | < 20 | 201 to 1000 | C=CC(=O)Nc1cc(Nc2nccc(-n3cc(CN(C)C)c(C4CC4)n3)n2)c(OC)cc1N1CCN(C(C)=O)CC1 [Compound 129, N-(2-(4-acetylpiperazin-1-yl)-5-(4-(3-cyclopropyl-4-((dimethylamino)methyl)-1H-pyrazol-1-yl)pyrimidin-2-ylamino)-4-methoxyphenyl)acrylamide]
18 | < 20 | < 20 | < 20 | < 20 | < 20 | 201 to 1000 | C=CC(=O)Nc1cc(Nc2ncc(F)c(-n3cc(CN4CCC4)c(-c4ccoc4)c3)n2)c(OC)cc1N1CCOCC1 [Compound 130, N-(5-(4-(3-(azetidin-1-ylmethyl)-4-(furan-3-yl)-1H-pyrrol-1-yl)-5-fluoropyrimidin-2-ylamino)-4-methoxy-2-morpholinophenyl)acrylamide]
19 | < 20 | < 20 | < 20 | < 20 | < 20 | > 1000 | C=CC(=O)Nc1cc(Nc2nccc(-n3cc(CN(C)C)c(-c4ccccc4)n3)n2)c(OC)cc1N1CCN(C(C)=O)CC1 [Compound 135, N-(2-(4-acetylpiperazin-1-yl)-5-(4-(4-((dimethylamino)methyl)-3-phenyl-1H-pyrazol-1-yl)pyrimidin-2-ylamino)-4-methoxyphenyl)acrylamide]
20 | < 20 | < 20 | < 20 | < 20 | < 20 | > 1000 | C=CC(=O)Nc1cc(Nc2nccc(-n3cc(CN4CCC4)c(C4CC4)n3)n2)c(OC)cc1N1CCN(C(C)=O)CC1 [Compound 138, N-(2-(4-acetylpiperazin-1-yl)-5-(4-(4-(azetidin-1-ylmethyl)-3-cyclopropyl-1H-pyrazol-1-yl)pyrimidin-2-ylamino)-4-methoxyphenyl)acrylamide]
